The values below come from US9206136B2, “Pyrazolyl-based carboxamides I” (Grünenthal GmbH, priority 2013, dated 2015).

By IC50 is commonly meant the concentration needed to halve the response being measured.

SMILES strings stand for the structures.

Assay [1] deals with T1, CRAC channel (endogenous SOC in HEK293 cells) (Homo sapiens, UniProt Q96D31).
T1 construct: host or cells: HEK293
Put plainly: HEK Calcium Influx Assay (FLIPR). The class given is cell-based. The settings on record: 10 μM compound, thapsigargin store depletion, Ca2+ signal 9.5-10 min post-administration, read-out: % inhib. [@ 10 μM] FLIPR. The method, then:
Compounds of the invention have been tested for their effects on CRAC channels according to the following or similar procedures.
The effect of compounds of the invention on intracellular [Ca^2+] was tested in the HEK293 cell line (ECACC).
HEK293 cells were cultured in DMEM/F12/Glutamax (Gibco) containing 10% FCS (Gibco), and maintained at 37° C., 5% CO2. Cell were split twice a week [3·10^6 (Mon-Thu) and 1·10^6 (Thu-Mon) cells/50 ml medium in T-175 ZK culture flasks, respectively]. 24 hours pre-experiment, cells were seeded on 96 well plates (Poly-D-Lysine 96well Black/Clear Plate, BD Biocoat REF 356640) at a density of 40,000 cells/well in DMEM/F12 (Gibco) containing 10% FCS (Gibco), and maintained at 37° C., 5% CO2.
Prior to store-depletion, cell culture medium was removed and cells were loaded with the a Ca^2+-sensitive fluorescent dye comprised within the Calcium-4-assay kit (Molecular Devices) in nominally Ca^2+-free HBS buffer (140 mM NaCl, 4 mM KCl, 0.2 mM MgCl2, 11 mM D-glucose, and 10 mM HEPES, pH 7.4) according to manufacturer's instruction for 60 min at 37° C., 5% CO2.
Passive depletion of intracellular Ca^2+-stores was then triggered by employing the SERCA inhibitor thapsigargin (2 μM final) for 10 min in the dark (rt). To prevent immediate Ca^2+-entry via the activated Store-operated channels (SOCs), cells were maintained in Ca^2+-free HBS buffer comprising 100 μM EGTA during store-depletion.
Intracellular changes in [Ca^2+] were subsequently monitored with the FLIPR device (Molecular Devices). In brief, baseline imaging post-store depletion was allowed for 1 min before adjusting the extracellular buffer to 3 mM CaCl2. Increases in intracellular [Ca^2+] due to pre-activated SOC channels were monitored for 15 min until intracellular Ca^2+ levels had declined into a steady-state. Finally, compounds were administered and Ca^2+ signals were recorded for additional 10 min.
Inhibition of endogenous SOC in HEK293 cells was quantified employing the average Ca^2+ signal measured from 9.5-10 min post-administration. Zero percent inhibition (MAX) was defined as the Ca^2+ signal recorded from wells to which DMSO-only had been added instead of compound. Hundred percent inhibition (MIN) was defined as the signal obtained from wells in which cells haven't been treated with TG prior to Ca^2+ addition and to which DMSO-only had been added instead of compound. For routine IC50 determinations of compounds, 8 concentrations of a serial dilution (1:3.16) were tested, starting off from 10 μM. Reliable IC50's could consequently be determined only, if they were at least sub 2.5-3 μM.

The test system of assay [2] is Interleukin-2 (IL-2) production/release in Jurkat T cell line clone E6-1. Put plainly: Jurkat IL-2 Production Assay. The class given is cell-based. The settings on record: Homo sapiens; Jurkat T cells stimulated with 15 μg/ml PHA for 22 hours; IL-2 in supernatant (AlphaLisa). On the procedure: Jurkat IL-2 Production Assay
The effect of compounds of the invention on Interleukin-2 (IL-2) production/release was tested in the Jurkat T cell line (ECACC) clone E6-1.
Jurkat T cells were cultured in DMEM/F12/Glutamax (Gibco) containing 10% FCS (Gibco), and maintained at 37° C., 5% CO2. Cells were split twice a week [5·10^6 (Mon-Thu) and 1·10^7 (Thu-Mon) cells/50 ml medium in T-175 ZK culture flasks, respectively].
Prior to experiment, cells were seeded on 96 well plates (Cellstar 96 Well; Cat No. 655180, Greiner bio-one) at a density of 5·10^5 cells/well in DMEM/F12/Glutamax (Gibco) containing 10% FCS (Gibco), and incubated for 60 min at 37° C., 5% CO2. Subsequently, compounds were added and cells were allowed to incubate for 30 min at 37° C., 5% CO2. Cells were then stimulated with 15 μg/ml Phyto-hemagglutinin (PHA; Sigma) for 22 hours at 37° C., 5% CO2.
Before sampling of the supernatants, cells were spun down (200*g/5 min/RT). The amount of IL-2 released into the supernatant was quantified with the human IL-2 AlphaLisa kit (Perkin Elmer) according to manufacturer's instructions. Luminescence proximity measurements were carried out in the Synergy H4 reader (BioTek) employing the fluorescence setting of the reader (ex: 680/30 nm; em: 620/40 nm).
Inhibition of IL-Production/Release in/from Jurkat T Cells Cells was Quantified as Follows:
Zero percent inhibition (MAX) was defined as the [IL-2] determined in supernatants derived from cells to which PHA & DMSO-only had been added instead of compound. Hundred percent inhibition (MIN) was defined as the [IL-2] determined in supernatants derived from cells that had been pre-treated with 1 μM CyclosporineA (Sigma) before the addition of 15 μg/ml PHA.
For routine IC50 determinations of compounds, 8 concentrations of a serial dilution (1:3.16) were tested, starting off from 10 μM.
Background: Alpha assays give light when donor and acceptor beads are brought close together.

T1 sequence (Q96D31 whole entry): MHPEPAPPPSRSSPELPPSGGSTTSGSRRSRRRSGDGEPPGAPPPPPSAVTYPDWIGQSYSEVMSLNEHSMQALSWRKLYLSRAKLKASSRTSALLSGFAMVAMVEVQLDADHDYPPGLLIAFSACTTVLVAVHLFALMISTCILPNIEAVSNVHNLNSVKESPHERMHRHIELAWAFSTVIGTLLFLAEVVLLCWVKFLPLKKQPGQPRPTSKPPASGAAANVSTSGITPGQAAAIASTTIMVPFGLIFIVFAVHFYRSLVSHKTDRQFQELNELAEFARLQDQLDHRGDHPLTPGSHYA

In the case of `Cc1ccc(-c2ccnc(N)c2)cc1-c1cc(C(=O)Nc2c(F)cccc2F)nn1C` [Example 20, 5-[5-(2-Amino-pyridin-4-yl)-2-methyl-phenyl]-N-(2,6-difluoro-phenyl)-1-methyl-1H-pyrazole-3-carboxylic acid amide], in assay [1], the inhibition at 10 µM lay in the range of 50 to 70%. The IC50 in assay [2] is 0.5 to 1 µM.

Consider `Cc1ccc(C2CCOCC2)cc1-c1cc(C(=O)Nc2c(F)cccc2F)nn1C` [Example 22, N-(2,6-Difluoro-phenyl)-1-methyl-5-(2-methyl-5-tetrahydro-pyran-4-yl-phenyl)-1H-pyrazole-3-carboxylic acid amide], for which the inhibition at 10 µM in assay [1] was > 70%. For the same molecule, in assay [2], the IC50 lay in the range of 1 to 5 µM.

Take `Cc1ccc(-c2ncn(C)n2)cc1-c1cc(C(=O)Nc2c(F)cccc2F)nn1C` [Example 23, N-(2,6-Difluoro-phenyl)-1-methyl-5-[2-methyl-5-(1-methyl-1H-[1,2,4]triazol-3-yl)-phenyl]-1H-pyrazole-3-carboxylic acid amide]: the inhibition at 10 µM in assay [1] is < 50%. Also, in assay [2], the IC50 is 1 to 5 µM.

Consider `Cc1cc(-c2nccs2)ccc1-c1cc(C(=O)Nc2c(F)cccc2F)nn1C` [Example 24, N-(2,6-Difluoro-phenyl)-1-methyl-5-(2-methyl-4-thiazol-2-yl-phenyl)-1H-pyrazole-3-carboxylic acid amide], for which the inhibition at 10 µM in assay [1] is > 70%. Besides, in assay [2], the IC50 lay within 1 to 5 µM.

With `Cc1ccc(-c2nccs2)cc1-c1c(C)c(C(=O)Nc2c(F)cccc2F)nn1C` [Example 25, N-(2,6-Difluoro-phenyl)-1,4-dimethyl-5-(2-methyl-5-thiazol-2-yl-phenyl)-1H-pyrazole-3-carboxylic acid amide], the inhibition at 10 µM in assay [1] was < 50%. The IC50 in assay [2] was in the range of 1 to 5 µM.

As to `Cc1ccc(-c2nccs2)cc1-c1c(C)c(C(=O)Nc2ccncc2F)nn1C` [Example 26, N-(3-Fluoro-pyridin-4-yl)-1,4-dimethyl-5-(2-methyl-5-thiazol-2-yl-phenyl)-1H-pyrazole-3-carboxylic acid amide], in assay [1], the inhibition at 10 µM is < 50%. Further, the IC50 in assay [2] is 1 to 5 µM.

On to `Cc1c(C(=O)Nc2c(F)cccc2F)nn(C)c1-c1cccc(-c2nccs2)c1` [Example 27, N-(2,6-Difluoro-phenyl)-1,4-dimethyl-5-(3-thiazol-2-yl-phenyl)-1H-pyrazole-3-carboxylic acid amide], for which, in assay [1], the inhibition at 10 µM is > 70%. Also, the IC50 in assay [2] is 0.5 to 1 µM.

For `Cc1nnc(-c2ccc(C)c(-c3cc(C(=O)Nc4c(F)cccc4F)nn3C)c2)[nH]1` [Example 28, N-(2,6-Difluoro-phenyl)-1-methyl-5-[2-methyl-5-(5-methyl-4H-[1,2,4]triazol-3-yl)-phenyl]-1H-pyrazole-3-carboxylic acid amide], the inhibition at 10 µM in assay [1] was < 50%. The IC50 in assay [2] is 1 to 5 µM.

For `Cn1nc(C(=O)Nc2c(F)cccc2F)cc1-c1cc(-c2ncco2)ccc1OC(F)(F)F` [Example 30, N-(2,6-Difluoro-phenyl)-1-methyl-5-[5-oxazol-2-yl-2-(trifluoromethyloxy)-phenyl]-1H-pyrazole-3-carboxylic acid amide], the inhibition at 10 µM in assay [1] was > 70%. Moreover, the IC50 in assay [2] was 0.5 to 1 µM.

For `Cn1nc(C(=O)Nc2ccncc2F)cc1-c1cc(-c2ncco2)ccc1OC(F)(F)F` [Example 31, N-(3-Fluoro-pyridin-4-yl)-1-methyl-5-[5-oxazol-2-yl-2-(trifluoromethyloxy)-phenyl]-1H-pyrazole-3-carboxylic acid amide], in assay [1], the inhibition at 10 µM fell in the range of 50 to 70%. The IC50 in assay [2] lay within 1 to 5 µM.

As for `Cc1ccc(-c2nnc[nH]2)cc1-c1cc(C(=O)Nc2c(F)cccc2F)nn1C` [Example 32, N-(2,6-Difluoro-phenyl)-1-methyl-5-[2-methyl-5-(4H-[1,2,4]triazol-3-yl)-phenyl]-1H-pyrazole-3-carboxylic acid amide], the inhibition at 10 µM in assay [1] is < 50%. Further, in assay [2], the IC50 was in the range of 1 to 5 µM.

With `Cn1nc(C(=O)Nc2c(F)cncc2F)cc1-c1cc(-c2ncco2)ccc1OC(F)(F)F` [Example 33, N-(3,5-Difluoro-pyridin-4-yl)-1-methyl-5-[5-oxazol-2-yl-2-(trifluoro-methyloxy)-phenyl]-1H-pyrazole-3-carboxylic acid amide], the inhibition at 10 µM in assay [1] lay in the range of 50 to 70%. Further, the IC50 in assay [2] was in the range of 0.5 to 1 µM.

Turning to `COc1ccc(C2CC2)cc1-c1c(C)c(C(=O)Nc2c(F)cccc2F)nn1C` [Example 34, 5-(5-Cyclopropyl-2-methoxy-phenyl)-N-(2,6-difluoro-phenyl)-1,4-dimethyl-1H-pyrazole-3-carboxylic acid amide], in assay [1], the inhibition at 10 µM is > 70%. For the same molecule, the IC50 in assay [2] fell in the range of 0.5 to 1 µM.

Turning to `COc1ccc(C2CC2)cc1-c1c(C)c(C(=O)Nc2c(F)cncc2F)nn1C` [Example 35, 5-(5-Cyclopropyl-2-methoxy-phenyl)-N-(3,5-difluoro-pyridin-4-yl)-1,4-dimethyl-1H-pyrazole-3-carboxylic acid amide], the inhibition at 10 µM in assay [1] is > 70%. In assay [2], the IC50 was in the range of 0.5 to 1 µM.

As to `Cn1nc(C(=O)Nc2c(F)cccc2F)cc1-c1cc(C2CC2)ccc1OC(F)(F)F` [Example 36, 5-[5-Cyclopropyl-2-(trifluoromethyloxy)-phenyl]-N-(2,6-difluoro-phenyl)-1-methyl-1H-pyrazole-3-carboxylic acid amide], in assay [1], the inhibition at 10 µM is > 70%. Further, in assay [2], the IC50 was < 0.5 µM.

Regarding `Cn1nc(C(=O)Nc2c(F)cncc2F)cc1-c1cc(C2CC2)ccc1OC(F)(F)F` [Example 37, 5-[5-Cyclopropyl-2-(trifluoromethyloxy)-phenyl]-N-(3,5-difluoro-pyridin-4-yl)-1-methyl-1H-pyrazole-3-carboxylic acid amide], the inhibition at 10 µM in assay [1] was > 70%. Further, the IC50 in assay [2] is < 0.5 µM.

Turning to `Cn1nc(C(=O)Nc2ccncc2F)cc1-c1cc(C2CC2)ccc1OC(F)(F)F` [Example 38, 5-[5-Cyclopropyl-2-(trifluoromethyloxy)-phenyl]-N-(3-fluoro-pyridin-4-yl)-1-methyl-1H-pyrazole-3-carboxylic acid amide], the inhibition at 10 µM in assay [1] is > 70%. Also, the half-maximal inhibitory concentration (IC50) in assay [2] is 1 to 5 µM.

Regarding `Cn1nc(C(=O)Nc2c(F)cccc2F)cc1-c1ccc(C2CC2)cc1OC(F)(F)F` [Example 39, 5-[4-Cyclopropyl-2-(trifluoromethyloxy)-phenyl]-N-(2,6-difluoro-phenyl)-1-methyl-1H-pyrazole-3-carboxylic acid amide], the inhibition at 10 µM in assay [1] is > 70%. Besides, the IC50 in assay [2] is < 0.5 µM.

`Cn1nc(C(=O)Nc2c(F)cncc2F)cc1-c1ccc(C2CC2)cc1OC(F)(F)F` [Example 40, 5-[4-Cyclopropyl-2-(trifluoromethyloxy)-phenyl]-N-(3,5-difluoro-pyridin-4-yl)-1-methyl-1H-pyrazole-3-carboxylic acid amide]: the inhibition at 10 µM in assay [1] was > 70%. Further, the IC50 in assay [2] was < 0.5 µM.
